Assay results published in ChEMBL document CHEMBL1268840, “Design, synthesis and structure-activity relationship of novel quinoxalin-2-carboxamides as 5-HT3 receptor antagonists for the management of depression” (Bioorg Med Chem Lett, 2010).

Tests used:
[1] = target: T1, 5-hydroxytryptamine receptor 3A (Cavia porcellus, UniProt O70212); experiment: Antagonist activity at 5HT3 receptor in guinea pig ileum longitudinal muscle myenteric plexus assessed as inhibition of 2-methyl-5-HT-induced contraction; assay type: functional, tissue-based; details: read-out: pA2 (converted)
T1 sequence (O70212 whole entry): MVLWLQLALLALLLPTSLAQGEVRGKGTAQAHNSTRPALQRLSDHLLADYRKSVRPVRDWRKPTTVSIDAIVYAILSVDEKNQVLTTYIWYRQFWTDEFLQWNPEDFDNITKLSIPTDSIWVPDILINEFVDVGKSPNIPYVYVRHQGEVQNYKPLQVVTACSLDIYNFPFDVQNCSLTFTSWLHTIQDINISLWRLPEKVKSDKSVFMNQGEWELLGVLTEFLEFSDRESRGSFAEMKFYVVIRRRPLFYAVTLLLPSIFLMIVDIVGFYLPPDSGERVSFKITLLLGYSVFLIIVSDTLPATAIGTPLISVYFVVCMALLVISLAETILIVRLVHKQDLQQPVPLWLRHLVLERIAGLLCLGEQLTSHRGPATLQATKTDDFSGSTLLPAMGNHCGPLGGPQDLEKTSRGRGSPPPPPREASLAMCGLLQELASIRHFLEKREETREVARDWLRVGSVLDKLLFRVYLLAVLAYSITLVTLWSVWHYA

Mus musculus [2] = experiment: Toxicity in mouse assessed as induction of spontaneous locomotor activity at 1 mg/kg, ip after 10 mins by actophotometry; assay type: organism-based; design: dose 1 mg/kg, route intraperitoneal; details: in vivo
Mus musculus [3] = experiment: Toxicity in mouse assessed as induction of spontaneous locomotor activity at 0.5 mg/kg, ip after 10 mins by actophotometry; assay type: organism-based; design: dose 0.5 mg/kg, route intraperitoneal; details: in vivo
Mus musculus [4] = experiment: Toxicity in mouse assessed as induction of spontaneous locomotor activity at 2 mg/kg, ip after 10 mins by actophotometry; assay type: organism-based; design: dose 2 mg/kg, route intraperitoneal; details: in vivo
Mus musculus [5] = experiment: Antidepressant-like activity in mouse assessed as immobility time at 1 mg/kg, ip by forced swimming test; assay type: functional; details: route intraperitoneal
Mus musculus [6] = experiment: Antidepressant-like activity in mouse assessed as immobility time at 2 mg/kg, ip by forced swimming test; assay type: functional; details: route intraperitoneal
Mus musculus [7] = experiment: Antidepressant-like activity in mouse assessed as immobility time at 0.5 mg/kg, ip by forced swimming test; assay type: functional; details: route intraperitoneal

SMILES | Kb [1] [nM] | Activity (Mus musculus [2]) | Activity (Mus musculus [3]) | Activity (Mus musculus [4]) | Time (Mus musculus [5]) [s] | Time (Mus musculus [6]) [s] | Time (Mus musculus [7]) [s]
O=C(c1cnc2ccccc2n1)N1CCCC1 | 398 | Non-toxic | Non-toxic | Non-toxic | 139 | – | –
Cc1ccc(NC(=O)c2cnc3ccccc3n2)cc1 | 6310 | Non-toxic | Non-toxic | Non-toxic | 105 | 97.23 | 140
O=C(NC1CCCCC1)c1cnc2ccccc2n1 | 1000 | Non-toxic | Non-toxic | Non-toxic | 92.85 | 99 | 119
O=C(Nc1cccc(Cl)c1)c1cnc2ccccc2n1 | 1580 | Non-toxic | Non-toxic | Non-toxic | 151.2 | – | –
CCCNC(=O)c1cnc2ccccc2n1 | 200 | Non-toxic | Non-toxic | Non-toxic | 92.33 | 125 | 148
O=C(Nc1ccc(NC(=O)c2cnc3ccccc3n2)cc1)c1ccccc1 | 12600 | Non-toxic | Non-toxic | Non-toxic | 125 | – | –
O=C(Nc1ccc([N+](=O)[O-])cc1)c1cnc2ccccc2n1 | 10000 | Non-toxic | Non-toxic | Non-toxic | 106.32 | 108 | 142
O=C(Nc1ccccc1)c1cnc2ccccc2n1 | 158 | Non-toxic | Non-toxic | Non-toxic | 141 | – | –
O=C(Nc1nc2ccccc2s1)c1cnc2ccccc2n1 | 31600 | Non-toxic | Non-toxic | Non-toxic | 115.1 | – | –
Cc1c(Cl)cccc1NC(=O)c1cnc2ccccc2n1 | 25.1 | Non-toxic | Non-toxic | Non-toxic | 95.42 | 147 | 120
COc1ccc(NC(=O)c2cnc3ccccc3n2)cc1 | 10000 | Non-toxic | Non-toxic | Non-toxic | 143.5 | – | –

Now from value to molecule, other results behind:

Kb [1] [nM] | SMILES | Activity (Mus musculus [2]) | Activity (Mus musculus [3]) | Activity (Mus musculus [4]) | Time (Mus musculus [5]) [s] | Time (Mus musculus [6]) [s] | Time (Mus musculus [7]) [s]
100000 | O=C(Nc1ccccc1NC(=O)c1cnc2ccccc2n1)c1ccccc1 | Non-toxic | Non-toxic | Non-toxic | 121 | – | –
794 | CC(=O)c1cccc(NC(=O)c2cnc3ccccc3n2)c1 | Non-toxic | Non-toxic | Non-toxic | 132.4 | – | –
1580 | O=C(NNc1ccccc1)c1cnc2ccccc2n1 | Non-toxic | Non-toxic | Non-toxic | 95.4 | 121 | 126
2000 | O=C(NCc1ccccc1)c1cnc2ccccc2n1 | Non-toxic | Non-toxic | Non-toxic | 133 | – | –
316 | O=C(NC1CCCC1)c1cnc2ccccc2n1 | Non-toxic | Non-toxic | Non-toxic | 94.25 | 120 | 125
50.1 | CCCCNC(=O)c1cnc2ccccc2n1 | Non-toxic | Non-toxic | Non-toxic | 97.5 | 103 | 121
126 | Cc1nccn1CC1CCc2c(c3ccccc3n2C)C1=O (stereo not drawn) [ONDANSETRON] | Non-toxic | Non-toxic | Non-toxic | 100.4 | 95.1 | 130.2
